In publication PMC12303383, “The heme-regulated inhibitor kinase Hri1 is activated in response to aminolevulinic acid deficiency in Schizosaccharomyces pombe” (PLOS Genetics, 2025):

How the values were obtained:
Hri2 = biological target: T1, Hri2 (Schizosaccharomyces pombe, UniProt Q9UTE5); assay: differential absorbance spectral titration (Soret peak, […] nm) with purified protein; format: binding
T1 construct: MBP-tagged wild-type Hri2 expressed in E. coli, dephosphorylated with lambda phosphatase
T1 sequence (Q9UTE5 1-639): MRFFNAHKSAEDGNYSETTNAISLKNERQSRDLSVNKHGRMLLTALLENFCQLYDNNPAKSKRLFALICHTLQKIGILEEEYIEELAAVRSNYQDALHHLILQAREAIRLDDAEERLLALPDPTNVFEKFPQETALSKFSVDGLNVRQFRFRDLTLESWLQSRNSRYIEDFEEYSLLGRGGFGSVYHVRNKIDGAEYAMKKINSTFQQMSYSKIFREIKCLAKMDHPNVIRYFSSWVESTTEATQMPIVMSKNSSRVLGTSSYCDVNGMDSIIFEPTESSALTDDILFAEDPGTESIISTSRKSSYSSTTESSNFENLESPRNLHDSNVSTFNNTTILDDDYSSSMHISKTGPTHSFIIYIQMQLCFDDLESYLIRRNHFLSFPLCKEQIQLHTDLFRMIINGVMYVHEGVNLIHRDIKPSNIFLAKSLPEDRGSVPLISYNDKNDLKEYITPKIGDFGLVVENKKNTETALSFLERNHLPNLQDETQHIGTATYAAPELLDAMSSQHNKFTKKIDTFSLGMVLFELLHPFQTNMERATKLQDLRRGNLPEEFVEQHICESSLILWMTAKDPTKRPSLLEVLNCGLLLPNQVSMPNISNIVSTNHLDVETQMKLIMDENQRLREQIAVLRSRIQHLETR

[1] = biological target: T2, Hri1 (heme-regulated inhibitor kinase 1) (Schizosaccharomyces pombe, UniProt O13889); assay: as above; format: binding
T2 construct: MBP-tagged wild-type Hri1 expressed in E. coli, dephosphorylated with lambda phosphatase
T2 sequence (O13889 1-704): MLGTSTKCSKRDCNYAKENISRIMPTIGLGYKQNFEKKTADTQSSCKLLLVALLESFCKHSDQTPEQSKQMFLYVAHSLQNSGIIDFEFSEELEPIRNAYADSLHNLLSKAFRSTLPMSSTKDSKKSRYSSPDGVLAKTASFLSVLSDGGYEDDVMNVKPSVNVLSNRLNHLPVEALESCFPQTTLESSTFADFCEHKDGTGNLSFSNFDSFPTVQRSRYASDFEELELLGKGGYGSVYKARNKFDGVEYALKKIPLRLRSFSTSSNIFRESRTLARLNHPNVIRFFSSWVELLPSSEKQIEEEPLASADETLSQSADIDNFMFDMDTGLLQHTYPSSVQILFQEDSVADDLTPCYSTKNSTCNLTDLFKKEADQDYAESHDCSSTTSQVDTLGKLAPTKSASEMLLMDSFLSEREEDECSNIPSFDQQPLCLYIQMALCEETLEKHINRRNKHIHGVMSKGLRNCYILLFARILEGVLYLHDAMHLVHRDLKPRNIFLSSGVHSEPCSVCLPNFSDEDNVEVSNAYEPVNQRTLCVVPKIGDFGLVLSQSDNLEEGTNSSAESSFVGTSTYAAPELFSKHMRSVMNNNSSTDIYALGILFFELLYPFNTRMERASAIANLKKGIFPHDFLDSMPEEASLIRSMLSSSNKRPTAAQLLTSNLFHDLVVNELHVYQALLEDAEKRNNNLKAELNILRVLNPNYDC

Structure (SMILES): C=CC1=C(C)C2=Cc3c(C=C)c(C)c4[n]3[Fe]([Cl])[n]3c(c(C)c(CCC(=O)O)c3=CC3=NC(=C4)C(C)=C3CCC(=O)O)=CC1=N2 [hemin]
- Kd (Hri2): 1050 nM
- Kd [1]: 110 nM
